In US10172837B2, “Insulin sensitisers and methods of treatment” (NAIA Metabolic, Inc., priority 2007, dated 2019):

Legend:
Type in all cases: in vivo, Mus Musculus
[1] = tested on: Diet-Induced Obese (DIO) Mice; assay: Fasting plasma glucose in diet-induced obese mice
[2] = tested on: Diet-Induced Obese (DIO) Mice; assay: ipGTT (glucose tolerance) in diet-induced obese mice
[3] = Body weight of treated diet-induced obese mice; details: Day 0 or Day 13, DIO mice
Experimental: Male C57Bl/6J mice were obtained at 8 weeks of age from Animal Resources Centre (Canning Vale, Western Australia). Animals were individually housed and allowed free movement and ad libitum access to water and food. Animals were maintained on a 12 hour light (6 am-6 pm) and 12 hour dark (6 pm-6 am) cycle. Animals were monitored daily. Body weight, food and water intake were recorded 3 times a week.

db/db mice = assay: Fasting plasma glucose in db/db mice; details: for FPG Day 0: Methazolamide 20 mg/kg group
From the text: The db/db mouse model comprises mice with a homozygous mutation of the leptin receptor gene that ablates leptin signalling in the hypothalamus and elsewhere. The db/db mouse model is commonly used to study the genetic and physiological mechanisms of obesity and type II diabetes. […] Leptin acts through the leptin receptor to control whole-body energy homeostasis by regulating both appetite and energy expenditure. Loss of function of the leptin receptor gene results in hyperphagia and slower metabolism, leading to obesity and eventually diabetes. […] Dosing solutions of the test articles: Methazolamide, Metformin and Methazolamide/Metformin were prepared fresh on each dosing day and stored at room temperature, protected from light. The compound was formulated in sterile vehicle: […] Stock solutions were prepared by dissolving the compound in NMP:PEG300 (1:2, v/v). Saline was added to the stock solution prior to administration of the compound. The solutions were mixed by vortexing immediately prior to dosing to ensure a homogeneous suspension of the compound. Male C57Bl/6J db/db mice were obtained at 10 weeks of age from Animal Resources Centre ([…], Western Australia). Animals were individually housed and allowed free movement and ad libitum access to water and food. Animals were maintained on a 12 hour light (6 am-6 pm) and 12 hour dark (6 pm-6 am) cycle. Animals were monitored daily. Body weight, food and water intake were recorded 3 times a week. Mice were fed a standard chow diet, and used after a two week acclimatisation period. […] The fasting plasma glucose levels of the animals was tested prior to commencement of the study and then every 3-4 days during dosing. The animals were fasted for a period of 4 hours after dosing and prior to the taking of a blood sample via a tail nick. Blood glucose levels were monitored using commercially available glucometers (Accuchek Advantage, Roche) based on the electric current generated when a blood drop is spotted on a test strip resulting in conversion of the glucose present in the sample to gluconolactone by the glucose dehydrogenase enzyme, in the presence of the coenzyme (PQQ).

[4] = Body weight of treated db/db mice; details: Day 0, Day 8 or Day 18, db/db mice
Experimental: Male C57Bl/6J db/db mice were obtained at 10 weeks of age from Animal Resources Centre ([…], Western Australia). Animals were individually housed and allowed free movement and ad libitum access to water and food. Animals were maintained on a 12 hour light (6 am-6 pm) and 12 hour dark (6 pm-6 am) cycle. Animals were monitored daily. Body weight, food and water intake were recorded 3 times a week. Mice were fed a standard chow diet, and used after a two week acclimatisation period.

[5] = Methazolamide 10 mg/kg oral gavage (Table 5-1)
[6] = Methazolamide 10 mg/kg oral gavage (Table 8-1)
[7] = Methazolamide 20 mg/kg group, before dosing
[8] = Methazolamide 20 mg/kg oral gavage
[9] = Methazolamide 50 mg/kg group, before dosing
[10] = Methazolamide 50 mg/kg oral gavage
[11] = Methazolamide 100 mg/kg group, before dosing
[12] = Methazolamide 100 mg/kg oral gavage
[13] = Methazolamide 10 mg/kg oral gavage (Table 5-2)
[14] = Methazolamide 10 mg/kg oral gavage (Table 8-2)

SMILES: CC(=O)/N=c1\sc(S(N)(=O)=O)nn1C [Methazolamide, 5-acetylimino-4-methyl-Δ^2-1,3,4-thiadiazoline-2-sulfonamide]
- effect on fasting plasma glucose levels of diet-induced obese mice [1]: reduced the fasting plasma glucose levels
- FPG Day −1 ([1]; Methazolamide 10 mg/kg group, before dosing (Table 5-1)): 6.92 ± 0.55 mM
- FPG Day −1 ([1]; Methazolamide 10 mg/kg group, before dosing (Table 8-1)): 6.1 ± 0.5 mM
- Delta FPG Treatment Day 13 vs Day −1 [1, 5]: 12%
- FPG Day 13 [1, 5]: 7.75 ± 0.43 mM
- FPG Treatment vs Vehicle Day 13 [1, 5]: 1%
- Delta FPG Treatment Day 13 vs Day −1 [1, 6]: 8%
- Delta FPG Treatment vs Vehicle Day 13 [1, 6]: −12%
- FPG Day 13 [1, 6]: 6.6 ± 0.4 mM
- FPG Day −1 [1, 7]: 7.28 ± 0.47 mM
- Delta FPG Treatment Day 13 vs Day −1 [1, 8]: −5%
- FPG Day 13 [1, 8]: 6.90 ± 0.24 mM
- FPG Treatment vs Vehicle Day 13 [1, 8]: −10%^
- FPG Day −1 [1, 9]: 7.20 ± 0.71 mM
- Delta FPG Treatment Day 13 vs Day −1 [1, 10]: −13%
- FPG Day 13 [1, 10]: 6.28 ± 0.31 mM
- FPG Treatment vs Vehicle Day 13 [1, 10]: −18%^1
- FPG Day −1 [1, 11]: 7.63 ± 0.55 mM
- Delta FPG Treatment Day 13 vs Day −1 [1, 12]: −21%
- FPG Day 13 [1, 12]: 6.05 ± 0.15 mM
- FPG Treatment vs Vehicle Day 13 [1, 12]: −21%^2
- effect on glucose tolerance of diet-induced obese mice [2]: increased the glucose tolerance
- AUC Day −1 ([2]; Methazolamide 10 mg/kg group, before dosing (Table 5-2)): 1038 ± 129 mM·min
- AUC Day −1 ([2]; Methazolamide 10 mg/kg group, before dosing (Table 8-2)): 1190 ± 62 mM·min
- AUC Day 13 [2, 13]: 901 ± 139 mM·min
- Delta AUC Treatment Day 13 vs Day −1 [2, 13]: −13%^
- Delta AUC Treatment vs Vehicle Day 13 [2, 13]: −8%
- AUC Day 13 [2, 14]: 1131 ± 95 mM·min
- AUC Day 13 Treat vs Veh [2, 14]: −6%
- Delta AUC Day 13 vs Day −1 [2, 14]: −5%
- AUC Day −1 [2, 7]: 1070 ± 77 mM·min
- AUC Day 13 [2, 8]: 619 ± 106 mM·min
- Delta AUC Treatment Day 13 vs Day −1 [2, 8]: −42%^1
- Delta AUC Treatment vs Vehicle Day 13 [2, 8]: −37%^1
- AUC Day −1 [2, 9]: 1073 ± 112 mM·min
- AUC Day 13 [2, 10]: 710 ± 87 mM·min
- Delta AUC Treatment Day 13 vs Day −1 [2, 10]: −34%^1
- Delta AUC Treatment vs Vehicle Day 13 [2, 10]: −27%^1
- AUC Day −1 [2, 11]: 1080 ± 59 mM·min
- AUC Day 13 [2, 12]: 691 ± 60 mM·min
- Delta AUC Treatment Day 13 vs Day −1 [2, 12]: −36%^2
- Delta AUC Treatment vs Vehicle Day 13 [2, 12]: −29%^1
- difference in body weight between treated groups [3]: no difference in body weight
- FPG Day 0 (db/db mice; before dosing (Table 9-1)): 23.93 ± 1.6 mM
- FPG Day 0 (db/db mice; before dosing (Table 9-2)): 23.93 ± 1.6 mM
- Delta FPG Treatment Day 8 vs Day 0 (db/db mice; [8]): −32%^1
- Delta FPG Treatment Day 18 vs Day 0 (db/db mice; [8]): −29%^1
- FPG Day 8 (db/db mice; [8]): 16.30 ± 1.8 mM
- FPG Day 18 (db/db mice; [8]): 17.00 ± 2.5 mM
- FPG Treatment vs Vehicle Day 8 (db/db mice; [8]): −30%^4
- FPG Treatment vs Vehicle Day 18 (db/db mice; [8]): −38%^3
- effect on fasting plasma glucose levels of db/db mice (db/db mice; after 8 days of treatment): reduced the fasting plasma glucose levels
- effect on fasting plasma glucose levels of db/db mice (db/db mice; after 18 days of treatment): reduced the fasting plasma glucose levels
- difference in body weight vs Vehicle group [4]: no difference in body weight
